Assay results from patent US4229204A, “Trifluoromethylphenyl isoxazolyl benzoates” (Monsanto Company, priority 1978, dated 1980).

Columns and labels:
Format in all cases: in vivo
Wheat [1] = assay: Pre-emergent herbicidal test; conditions: 4 WAT; further: ranges in brackets are in %
Summary of the method: (§1)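 Topsoil compacted in pans; seeds/propagules pressed onto surface; cover soil premixed with known amount of compound (solvent or wettable powder) added to level fill. Read-out: fixed-scale rating of percent injury per species.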

Rice [2] = assay: Pre-emergent herbicidal test; conditions: 4 WAT; further: ranges in brackets are in %
Summary of the method: as §1

Hemp Sesbania [3] = assay: Pre-emergent herbicidal test; conditions: 4 WAT; further: ranges in brackets are in %
Summary of the method: as §1

Wild Buckwheat [4] = assay: Pre-emergent herbicidal test; conditions: 4 WAT; further: ranges in brackets are in %
Summary of the method: as §1

Sorghum [5] = assay: Pre-emergent herbicidal test; conditions: 4 WAT; further: ranges in brackets are in %
Summary of the method: as §1

Panicum Spp. [6] = assay: Pre-emergent herbicidal test; conditions: 4 WAT; further: ranges in brackets are in %
Summary of the method: as §1

Soybean [7] = assay: Pre-emergent herbicidal test; conditions: 4 WAT; further: ranges in brackets are in %
Summary of the method: as §1

Crabgrass [8] = assay: Pre-emergent herbicidal test; conditions: 4 WAT; further: ranges in brackets are in %
Summary of the method: as §1

Sugarbeet [9] = assay: Pre-emergent herbicidal test; conditions: 4 WAT; further: ranges in brackets are in %
Summary of the method: as §1

Williams soybeans = assay: Soybean seed yield test (Table V)
Method: Additionally, the compound of Example Number 3 was tested as follows.
Williams soybeans were planted on 5.5 inch row spacings. The soybeans were treated at three different stages of early growth (first, second or third trifoliate opening) with a formulation of the compound of Example Number 3 containing 0.25% Tween 20 as a surfactant.

Wheat [10] = assay: Post-emergent herbicidal test; further: ranges in brackets are in %
Method: (§2) The post-emergent tests were conducted as follows:
(§3) The active ingredients are applied in spray form to two or three week old specimens of various plant species. The spray, a solution or wettable powder suspension containing the appropriate rate of active ingredient to give the desired test rate and a surfactant, is applied to the plants.

Rice [11] = assay: Post-emergent herbicidal test; further: ranges in brackets are in %
Method: as §2, §3

Hemp Sesbania [12] = assay: Post-emergent herbicidal test; further: ranges in brackets are in %
Method: as §2, §3

Wild Buckwheat [13] = assay: Post-emergent herbicidal test; further: ranges in brackets are in %
Method: as §2, §3

Sorghum [14] = assay: Post-emergent herbicidal test; further: ranges in brackets are in %
Method: as §2, §3

Panicum Spp. [15] = assay: Post-emergent herbicidal test; further: ranges in brackets are in %
Method: as §2, §3

Soybean [16] = assay: Post-emergent herbicidal test; further: ranges in brackets are in %
Method: as §2, §3

Crabgrass [17] = assay: Post-emergent herbicidal test; further: ranges in brackets are in %
Method: as §2, §3

Sugarbeet [18] = assay: Post-emergent herbicidal test; further: ranges in brackets are in %
Method: as §2, §3

SMILES: COC(=O)c1ccccc1-c1cc(-c2cccc(C(F)(F)F)c2)no1 [Example 3, Methyl 2-[3-[3-(Trifluoromethyl)-Phenyl]-5-Isoxazolyl]Benzoate]
- herbicidal rating (Wheat [1]; 1.12 kg/h): 1 (25-49)
- herbicidal rating (Wheat [1]; 5.60 kg/h): 2 (50-74)
- herbicidal rating (Rice [2]; 1.12 kg/h): 3 (75-100)
- herbicidal rating (Rice [2]; 5.60 kg/h): 3 (75-100)
- herbicidal rating (Hemp Sesbania [3]; 1.12 kg/h): 3 (75-100)
- herbicidal rating (Hemp Sesbania [3]; 5.60 kg/h): 3 (75-100)
- herbicidal rating (Wild Buckwheat [4]; 1.12 kg/h): 2 (50-74)
- herbicidal rating (Wild Buckwheat [4]; 5.60 kg/h): 3 (75-100)
- herbicidal rating (Sorghum [5]; 1.12 kg/h): 2 (50-74)
- herbicidal rating (Sorghum [5]; 5.60 kg/h): 3 (75-100)
- herbicidal rating (Panicum Spp. [6]; 1.12 kg/h): 2 (50-74)
- herbicidal rating (Panicum Spp. [6]; 5.60 kg/h): 3 (75-100)
- herbicidal rating (Soybean [7]; 1.12 kg/h): 2 (50-74)
- herbicidal rating (Soybean [7]; 5.60 kg/h): 3 (75-100)
- herbicidal rating (Crabgrass [8]; 1.12 kg/h): 2 (50-74)
- herbicidal rating (Crabgrass [8]; 5.60 kg/h): 2 (50-74)
- herbicidal rating (Sugarbeet [9]; 1.12 kg/h): 2 (50-74)
- herbicidal rating (Sugarbeet [9]; 5.60 kg/h): 3 (75-100)
- Seed Yield (Williams soybeans; 0.0062 lb/acre, stage of application 2 (untreated 63.9)): 63.6 bu/acre
- Seed Yield (Williams soybeans; 0.0125 lb/acre, stage of application 1 (untreated 63.9)): 67.4 bu/acre
- Seed Yield (Williams soybeans; 0.0125 lb/acre, stage of application 2 (untreated 63.9)): 68.2 bu/acre
- Seed Yield (Williams soybeans; 0.0125 lb/acre, stage of application 3 (untreated 63.9)): 65.7 bu/acre
- Seed Yield (Williams soybeans; 0.0250 lb/acre, stage of application 1 (untreated 63.9)): 62.5 bu/acre
- Seed Yield (Williams soybeans; 0.0250 lb/acre, stage of application 2 (untreated 63.9)): 64.7 bu/acre
- Seed Yield (Williams soybeans; 0.0250 lb/acre, stage of application 3 (untreated 63.9)): 69.9 bu/acre
- Seed Yield (Williams soybeans; 0.0375 lb/acre, stage of application 1 (untreated 63.9)): 59.6 bu/acre
- Seed Yield (Williams soybeans; 0.0375 lb/acre, stage of application 2 (untreated 63.9)): 57.5 bu/acre
- Seed Yield (Williams soybeans; 0.0375 lb/acre, stage of application 3 (untreated 63.9)): 70.3 bu/acre
- Seed Yield (Williams soybeans; 0.0500 lb/acre, stage of application 2 (untreated 63.9)): 71.3 bu/acre
- herbicidal rating (Wheat [10]; 2 WAT, 1.12 kg/h): 1 (25-49)
- herbicidal rating (Wheat [10]; 4 WAT, 5.60 kg/h): 0 (0-24)
- herbicidal rating (Rice [11]; 2 WAT, 1.12 kg/h): 0 (0-24)
- herbicidal rating (Rice [11]; 4 WAT, 5.60 kg/h): 0 (0-24)
- herbicidal rating (Hemp Sesbania [12]; 2 WAT, 1.12 kg/h): 1 (25-49)
- herbicidal rating (Hemp Sesbania [12]; 4 WAT, 5.60 kg/h): 0 (0-24)
- herbicidal rating (Wild Buckwheat [13]; 2 WAT, 1.12 kg/h): 1 (25-49)
- herbicidal rating (Wild Buckwheat [13]; 4 WAT, 5.60 kg/h): 1 (25-49)
- herbicidal rating (Sorghum [14]; 2 WAT, 1.12 kg/h): 0 (0-24)
- herbicidal rating (Sorghum [14]; 4 WAT, 5.60 kg/h): 0 (0-24)
- herbicidal rating (Panicum Spp. [15]; 2 WAT, 1.12 kg/h): 0 (0-24)
- herbicidal rating (Panicum Spp. [15]; 4 WAT, 5.60 kg/h): 0 (0-24)
- herbicidal rating (Soybean [16]; 2 WAT, 1.12 kg/h): 1 (25-49)
- herbicidal rating (Soybean [16]; 4 WAT, 5.60 kg/h): 1 (25-49)
- herbicidal rating (Crabgrass [17]; 2 WAT, 1.12 kg/h): 0 (0-24)
- herbicidal rating (Crabgrass [17]; 4 WAT, 5.60 kg/h): 0 (0-24)
- herbicidal rating (Sugarbeet [18]; 2 WAT, 1.12 kg/h): 0 (0-24)
- herbicidal rating (Sugarbeet [18]; 4 WAT, 5.60 kg/h): 1 (25-49)
